Experimental data taken from US20100160304A1, “AROMATIC SULFONE COMPOUND AS ALDOSTERONE RECEPTOR MODULATOR” (Dainippon Sumitomo Pharma Co., Ltd, priority 2005, published 2010).

These compounds were tested against T1, aldosterone receptor MR (Rattus norvegicus, UniProt P22199) (assay: Aldosterone receptor binding assay ([3H]aldosterone, soluble fraction of rat kidney)). Settings: [3H]aldosterone 2 nM, 2 μM RU-486, 4° C. about 18 hours.
T1 construct: the resultant supernatant was being a soluble fraction of the kidney; from tissue; host or cells: kidney of adrenalectomized rat, 105,000 G supernatant (soluble fraction)
T1 sequence (P22199 1-981): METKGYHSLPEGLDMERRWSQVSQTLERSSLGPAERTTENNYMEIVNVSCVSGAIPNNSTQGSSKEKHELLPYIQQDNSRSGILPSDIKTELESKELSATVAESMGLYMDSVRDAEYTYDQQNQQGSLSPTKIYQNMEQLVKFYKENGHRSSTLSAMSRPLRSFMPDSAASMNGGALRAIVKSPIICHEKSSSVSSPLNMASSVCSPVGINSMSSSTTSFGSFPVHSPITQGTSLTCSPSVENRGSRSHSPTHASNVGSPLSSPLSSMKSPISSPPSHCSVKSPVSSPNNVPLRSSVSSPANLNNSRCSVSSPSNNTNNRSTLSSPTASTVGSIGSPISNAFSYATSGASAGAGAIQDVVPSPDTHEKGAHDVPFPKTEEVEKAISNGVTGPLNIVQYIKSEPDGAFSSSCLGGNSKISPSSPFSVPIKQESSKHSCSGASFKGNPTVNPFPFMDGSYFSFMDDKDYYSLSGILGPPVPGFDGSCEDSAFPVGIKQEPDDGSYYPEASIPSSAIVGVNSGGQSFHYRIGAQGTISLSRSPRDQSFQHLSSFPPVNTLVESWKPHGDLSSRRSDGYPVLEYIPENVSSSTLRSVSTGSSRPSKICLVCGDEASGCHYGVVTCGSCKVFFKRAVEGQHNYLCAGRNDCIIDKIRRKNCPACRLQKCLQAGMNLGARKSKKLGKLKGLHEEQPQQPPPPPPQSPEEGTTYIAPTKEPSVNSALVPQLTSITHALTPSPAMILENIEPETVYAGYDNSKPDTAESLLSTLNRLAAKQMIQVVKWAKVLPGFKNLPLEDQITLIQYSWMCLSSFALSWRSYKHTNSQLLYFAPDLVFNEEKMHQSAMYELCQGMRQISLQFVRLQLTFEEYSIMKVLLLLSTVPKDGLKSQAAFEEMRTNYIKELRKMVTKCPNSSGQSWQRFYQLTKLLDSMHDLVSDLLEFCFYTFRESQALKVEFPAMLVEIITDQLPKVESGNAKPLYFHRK
Experimental: Flank incision (both sides) was subjected to a rat to adrenalectomize. After suturing the rat's incised parts, the rat was again returned to a breeding cage and bred for a duration of 3 to 5 days to collect a kidney from the rat; the collected kidney was homogenized with 0.1 M Tris-HCl, 0.25M sucrose, 0.1M Na2MoO4, 2 mM DTT buffer solution (pH 7.4), the resultant solution was subjected to centrifugal separation at 105,000 G for 30 minutes, and the resultant supernatant was being a soluble fraction of the kidney.
Thereafter, the reactant solution was added with 50 μL of 5% dextran coated charcoal and mixed, and then centrifugated at 3,000 G for 5 minutes. Subsequently, 100 μL of the supernatant was collected and mixed with 3.5 mL of liquid scintillator ACS-II (Amersham) to measure a radioactivity with a liquid scintillation counter (manufactured by Packard, Tri Carb 2700TR). A non-specific binding was determined by adding 2 μM of aldosterone to the reactant solution.
Binding inhibiting rate (%)=10−[(B−N)/(B0−N)]×100
B: Binding amount of the marker ligand in the co-presence of the tested substance and marker ligand,
B0: Binding amount of the marker ligand in the absence of the tested substance, and
N: Binding amount of the marker ligand in the presence of excess aldosterone (2 μM).

IC50 [nM]	SMILES
500	Cc1ccc(S(=O)(=O)Cc2ccc3c(c2)C(C)CC(C)(C)N3)cc1 (centres unmarked) [Example 96, 2,2,4-Trimethyl-6-{[(4-methylphenyl)sulfonyl]methyl}-1,2,3,4-tetrahydroquinoline]
860	O=S(=O)(Nc1ccc2c(c1)C(c1ccccc1)OC(=S)N2)c1cccs1 (centres unmarked) [Example 44, N-(4-Phenyl-2-thioxo-1,4-dihydro-2H-3,1-benzoxazin-6-yl)thiophene-2-sulfonamide]
6600	Cc1ccc(S(=O)(=O)Oc2ccc(NS(C)(=O)=O)cc2)cc1 [Example 105, 4-[(Methylsulfonyl)amino]phenyl 4-methylbenzenesulfonate]
6600	CC1(C)OC(=S)Nc2ncc(CS(=O)(=O)c3cccnc3)cc21 [Example 38, 4,4-Dimethyl-6-[(pyridine-3-ylsulfonyl)methyl]-1,4-dihydro-2H-pyrido[2,3-d][1,3]oxazin-2-thione]
1600	CC1(C)OC(=S)Nc2ccc(NS(=O)(=O)c3ccccc3F)cc21 [Example 29, N-(4,4-Dimethyl-2-thioxo-1,4-dihydro-2H-3,1-benzoxazin-6-yl)-2-fluorobenzenesulfonamide]
300	CC1=CC(C)(C)Nc2ccc(OS(=O)(=O)c3ccc(C)cc3)cc21 [Example 51, 2,2,4-Trimethyl-1,2-dihydroquinolin-6-yl 4-methylbenzenesulfonate]
2900	C=CC1OC(=S)Nc2ccc(NS(=O)(=O)c3cccs3)cc21 (centres unmarked) [Example 46, N-(2-Thioxo-4-vinyl-1,4-dihydro-2H-3,1-benzoxazin-6-yl)thiophene-2-sulfonamide]
2100	Cc1ccc(S(=O)(=O)N(C)c2ccc3c(c2)C(C)CC(C)(C)N3)cc1 (centres unmarked) [Example 100, N,4-Dimethyl-N-(2,2,4-trimethyl-1,2,3,4-tetrahydroquinolin-6-yl)benzenesulfonamide]
900	CC1=CC(C)(C)Nc2ccc(NS(=O)(=O)c3ccccc3C)cc21 [Example 78, 2-Methyl-N-(2,2,4-trimethyl-1,2-dihydroquinolin-6-yl)benzenesulfonamide]
960	CC1(C)OC(=S)Nc2ncc(CS(=O)(=O)c3cccs3)cc21 [Example 37, 4,4-Dimethyl-6-[(2-thienylsulfonyl)methyl]-1,4-dihydro-2H-pyrido[2,3-d][1,3]oxazin-2-thione]
300	CC(=O)N(c1ccc2c(c1)C(C)=CC(C)(C)N2)S(=O)(=O)c1ccc(Cl)s1 [Example 89, N-[(5-Chloro-2-thienyl)sulfonyl]-N-(2,2,4-trimethyl-1,2-dihydroquinolin-6-yl)acetamide]
8000	CCCCS(=O)(=O)Nc1ccc(OS(=O)(=O)c2ccc(C)cc2)cc1 [Example 106, 4-[(Butylsulfonyl)amino]phenyl 4-methylbenzenesulfonate]
13	CC1(C)OC(=S)Nc2ccc(NS(=O)(=O)c3ccsc3)cc21 [Example 28, N-(4,4-Dimethyl-2-thioxo-1,4-dihydro-2H-3,1-benzoxazin-6-yl)thiophene-3-sulfonamide]
320	Cc1ccc(S(=O)(=O)Oc2ccc3c(c2)C(C)(C)OC(=S)N3)cc1 [Example 2, 4,4-Dimethyl-2-thioxo-1,4-dihydro-2H-3,1-benzoxazin-6-yl 4-methylbenzenesulfonate]
5500	CC1(C)OC(=S)Nc2ncc(NS(=O)(=O)c3cccs3)cc21 [Example 41, N-(4,4-Dimethyl-2-thioxo-1,4-dihydro-2H-pyrido[2,3-d][1,3]oxazin-6-yl)thiophene-2-sulfonamide]
29	CC1=CC(C)(C)Nc2ccc(CS(=O)(=O)c3ccc(C)cc3)cc21 [Example 57, 2,2,4-Trimethyl-6-{[(4-methylphenyl)sulfonyl]methy}-1,2-dihydroquinoline]

IC50 [nM]	SMILES
500	CC1=CC(C)(C)Nc2ccc(N(C)S(=O)(=O)c3ccc(C)cc3)cc21 [Example 81, N,4-Dimethyl-N-(2,2,4-trimethyl-1,2-dihydroquinolin-6-yl)benzenesulfonamide]
1300	CC1=CC(C)(C)Nc2cc(C)c(NS(=O)(=O)c3ccc(C)cc3)cc21 [Example 80, 4-Methyl-N-(2,2,4,7-tetramethyl-1,2-dihydroquinolin-6-yl)benzenesulfonamide]
2400	CC1(C)OC(=O)Nc2ccc(NS(=O)(=O)c3cccs3)cc21 [Example 23, N-(4,4-Dimethyl-2-oxo-1,4-dihydro-2H-3,1-benzoxazin-6-yl)thiophene-2-sulfonamide]
7	Cc1ccc(S(=O)(=O)Cc2ccc3c(c2)C(C)(C)OC(=S)N3)cc1 [Example 16, 4,4-Dimethyl-6-{[(4-methylphenyl)sulfonyl]methyl}-1,4-dihydro-2H-3,1-benzoxazin-2-thione]
9400	Cc1ccc(S(=O)(=O)Oc2ccc(NS(C)(=O)=O)cc2F)cc1 [Example 110, 2-Fluoro-4-[(methylsulfonyl)amino]phenyl 4-methylbenzenesulfonate]
130	CC1=CC(C)(C)Nc2ccc(NS(=O)(=O)c3cccs3)cc21 [Example 62, N-(2,2,4-Trimethyl-1,2-dihydroquinolin-6-yl)thiophene-2-sulfonamide]
160	CC1(C)OC(=S)Nc2ccc(NS(=O)(=O)c3ccc(C(F)(F)F)cc3)cc21 [Example 30, N-(4,4-Dimethyl-2-thioxo-1,4-dihydro-2H-3,1-benzoxazin-6-yl)-4-(trifluoromethyl)benzenesulfonamide]
520	CC1=CC(C)(C)Nc2ccc(NS(=O)(=O)c3ccc4ccccc4c3)cc21 [Example 61, N-(2,2,4-Trimethyl-1,2-dihydroquinolin-6-yl)naphthalene-2-sulfonamide]
1300	Cc1ccc(S(=O)(=O)Cc2cnc3c(c2)C(C)(C)OC(=S)N3)cc1 [Example 36, 4,4-Dimethyl-6-{[(4-methylphenyl)sulfonyl]methyl}-1,4-dihydro-2H-pyrido[2,3-d][1,3]oxazin-2-thione]
5400	Cc1ccc(S(=O)(=O)Cc2ccc(NS(C)(=O)=O)cc2)cc1 [Example 112, N-(4-{[(4-Methylphenyl)sulfonyl]methyl}phenyl)methanesulfonamide]
600	CC1=CC(C)(C)Nc2ccc(NS(=O)(=O)c3ccccc3F)cc21 [Example 67, 2-Fluoro-N-(2,2,4-trimethyl-1,2-dihydroquinolin-6-yl)benzenesulfonamide]
150	CC1=CC(C)(C)Nc2ccc(N(C)S(=O)(=O)c3cccs3)cc21 [Example 85, N-Methyl-N-(2,2,4-trimethyl-1,2-dihydroquinolin-6-yl)thiophene-2-sulfonamide]
94	CC1CC(C)(C)Nc2ccc(NS(=O)(=O)c3cccs3)cc21 (centres unmarked) [Example 98, N-(2,2,4-Trimethyl-1,2,3,4-tetrahydroquinolin-6-yl)thiophene-2-sulfonamide]
11	C=CC1(C)OC(=S)Nc2ccc(NS(=O)(=O)c3cccs3)cc21 (centres unmarked) [Example 50, N-(4-Methyl-2-thioxo-4-vinyl-1,4-dihydro-2H-3,1-benzoxazin-6-yl)thiophene-2-sulfonamide]
120	CC1=CC(C)(C)Nc2ccc(NS(=O)(=O)c3ccsc3)cc21 [Example 74, N-(2,2,4-Trimethyl-1,2-dihydroquinolin-6-yl)thiophene-3-sulfonamide]
1500	CC1=CC(C)(C)Nc2ccc(NS(=O)(=O)c3cccc(F)c3)cc21 [Example 68, 3-Fluoro-N-(2,2,4-trimethyl-1,2-dihydroquinolin-6-yl)benzenesulfonamide]
